Results reported in patent publication US20070021451A1, “Method for preventing or treating neurologic damage after spinal cord injury” (HAMAMATSU UNIVERSITY SCHOOL OF MEDICINE, priority 2005, published 2007).

Test: Physiologic parameters (body weight, rectal temperature, mean arterial blood pressure) in rabbit model of spinal cord ischemia
Assay type: in vivo, New Zealand White rabbits
Description: Twenty-six male New Zealand White rabbits weighting 2.2 to 3.0 kg were used in this experiment. Spinal cord ischemia was induced by occluding the abdominal aorta with […] for 20 minutes just distal to the renal arteries. Surgical preparation was conducted according to the method described in the literature, Terada H. et. al., J. Thorac. Cardiovasc. Surg. 2001; 122: 979-85. A 24-gauge venous catheter was placed in the marginal ear vein for drug administration. The rabbits were anesthetized with intravenous sodium pentobarbital (25 mg/kg) and allowed to breathe spontaneously. Lidocaine (0.5%) was administered at the site of the skin incision as local anesthesia. The left common carotid artery was cannulated with a 24-gauge catheter for monitoring the arterial pressure. Core body temperature was continuously monitored with a rectal probe and was maintained at 38.5° C. with the aid of heating lamp. The infrarenal abdominal aorta was exposed through a transperitoneal approach. After systemic heparinization (200 U/kg), spinal cord ischemia was induced by occluding the abdominal aorta with […] for 20 minutes just distal to the renal arteries and just above the aortic bifurcation. Then, the […] released, and the flank was closed. […] The rabbits were assigned randomly to 1 of the 4 groups and subjected to the treatment of (1) above in the following manner. The sham group (n=3) underwent the same operation without aortic occlusion. The control group (n=7) received saline (1 ml) intravenously 15 minutes before aortic occlusion. NS-7 (1 mg/kg) was administered intravenously as a bolus dose 15 minutes before aortic occlusion in group A (n=8) or just after releasing the […] onset of reperfusion) in group B (n=8). All the animals survived the entire observation period. Body weight, rectal temperature, and mean arterial blood pressure values at baseline, 10 minutes after ischemia, and 10 minutes after reperfusion are shown in Table 1. There were no significant differences in the weights of the animals.

[1] = Group A (NS-7 1 mg/kg i.v. 15 min before aortic occlusion), Baseline
[2] = Group A (NS-7 1 mg/kg i.v. 15 min before aortic occlusion), Ischemia, 10 min
[3] = Group A (NS-7 1 mg/kg i.v. 15 min before aortic occlusion), Reperfusion, 10 min
[4] = Group B (NS-7 1 mg/kg i.v. at onset of reperfusion), Baseline
[5] = Group B (NS-7 1 mg/kg i.v. at onset of reperfusion), Ischemia, 10 min
[6] = Group B (NS-7 1 mg/kg i.v. at onset of reperfusion), Reperfusion, 10 min

## Cc1cc(-c2ccc(F)cc2)cc(OCCCCCN2CCCCC2)n1.Cl [NS-7, 4-(4-Fluorophenyl)-2-methyl-6-(5-piperidinopentyloxy)pyridine hydrochloride]
[1]
  MAP (mean arterial blood pressure): 83 ± 5 mmHg
  Rectal Temp.: 38.4 ± 0.7 °C
[2]
  MAP (mean arterial blood pressure): 85 ± 5 mmHg
  Rectal Temp.: 38.1 ± 0.4 °C
[3]
  MAP (mean arterial blood pressure): 78 ± 10 mmHg
  Rectal Temp.: 38.1 ± 0.2 °C
[4]
  MAP (mean arterial blood pressure): 91 ± 6 mmHg
  Rectal Temp.: 38.5 ± 0.4 °C
[5]
  MAP (mean arterial blood pressure): 86 ± 7 mmHg
  Rectal Temp.: 38.4 ± 0.5 °C
[6]
  MAP (mean arterial blood pressure): 81 ± 8 mmHg
  Rectal Temp.: 38.6 ± 0.5 °C
